For 22 compounds, IC50 results are on record in patent US20230257415A1, “COMPOUNDS FOR TREATING CNS DISORDERS” (SAGE THERAPEUTICS, INC., priority 2019, published 2023).

In general, IC50 refers to the midpoint of a concentration-inhibition curve.

The structures appear in SMILES notation.

For this experiment, the target named is GABAA receptor. As to the kind of experiment: [35S]-TBPS binding assay, rat brain cortical membranes, in the presence of GABA. The note with it: inhibition of 3 nM [35S]-TBPS binding, 5 mM GABA, 90 min, room temp. The protocol: [35S]-t-Butylbicyclophosphorothionate (TBPS) binding assays using rat brain cortical membranes in the presence of 5 mM GABA has been described (Gee et al, J. Pharmacol. Exp. Ther. 1987, 241, 346-353; Hawkinson et al, Mol. Pharmacol. 1994, 46, 977-985; Lewin, A.H et al., Mol. Pharmacol. 1989, 35, 189-194).
Briefly, cortices are rapidly removed following decapitation of carbon dioxide-anesthetized Sprague-Dawley rats (200-250 g). The cortices are homogenized in 10 volumes of ice-cold 0.32 M sucrose using a glass/teflon homogenizer and centrifuged at 1500 x g for 10 min at 4° C. The resultant supernatants are centrifuged at 10,000 x g for 20 min at 4° C. to obtain the P2 pellets. The P2 pellets are resuspended in 200 mM NaCl/50 mM Na-K phosphate pH 7.4 buffer and centrifuged at 10,000 x g for 10 min at 4° C. This washing procedure is repeated twice and the pellets are resuspended in 10 volumes of buffer. Aliquots ([…]) of the membrane suspensions are incubated with 3 nM [^35S]-TBPS and […] aliquots of test drug dissolved in dimethyl sulfoxide (DMSO) (final 0.5%) in the presence of 5 mM GABA. The incubation is brought to a final volume of 1.0 mL with buffer. […] Following a 90 min incubation at room temp, the assays are terminated by filtration through glass fiber filters (Schleicher and Schuell No. 32) using a cell harvester (Brandel) and rinsed three times with ice-cold buffer. Filter bound radioactivity is measured by liquid scintillation spectrometry. Non-linear curve fitting of the overall data for each drug averaged for each concentration is done using Prism (GraphPad). […] The concentration of test compound producing 50% inhibition (IC50) of specific binding and the maximal extent of inhibition (Imax) are determined for the individual experiments with the same model used for the overall data and then the means ± SEM.s of the individual experiments are calculated.
Various compounds are or can be screened to determine their potential as modulators of [^35S]-TBPS binding in vitro. These assays are or can be performed in accordance with the above.

In the case of `CN(C[C@H]1CCC[C@H]2[C@@H]3CC[C@@H]4C[C@](C)(O)CC[C@@H]4[C@H]3CC[C@]12C)C(=O)c1ccccc1` [Example 23, N-(((1S,4aS,4bR,6aR,8R,10aS,10bR,12aS)-8-hydroxy-8,12a-dimethyloctadecahydrochrysen-1-yl)-methyl)-N-methylbenzamide], the IC50 lay in the range of 0.1 to 1 µM.

In the case of `C[C@@H](Cn1cc(C#N)cn1)[C@H]1CC[C@H]2[C@@H]3CC=C4CC[C@](C)(O)CC[C@]4(C)[C@H]3CC[C@]12C` [Example 17, 1-((R)-2-((1R,3aS,3bS,8S,10aR,10bS,12aS)-8-hydroxy-8,10a,12a-trimethyl-1,2,3,3a,3b,4,6,7,8,9,10,10a,10b,11,12,12a-hexadecahydrocyclohepta[a]cyclopenta[f]naphthalen-1-yl)propyl)-1H-pyrazole-4-carbonitrile], the IC50 was less than 0.1 µM.

As for `C[C@@H](Nc1ccc(C#N)cc1)[C@H]1CCC[C@H]2[C@@H]3CC[C@@H]4C[C@](C)(O)CC[C@@H]4C3CC[C@]12C` (stereo partly drawn) [Example 51, 4-(((1R)-1-((1S,4aS,4bR,6aR,8R,10aS,12aS)-8-hydroxy-8,12a-dimethyloctadecahydrochrysen-1-yl)ethyl)amino)benzonitrile], the IC50 was less than 0.1 µM.

Take `CCOC[C@@]1(O)CC[C@@H]2C3CC[C@]4(C)[C@@H]([C@H](C)NC(=O)c5ccc(C#N)cc5F)CCC[C@H]4[C@@H]3CC[C@@H]2C1` (stereo partly shown) [Example 55]: the half-maximal inhibitory concentration (IC50) fell in the range of 0.1 to 1 µM.

For `C[C@@]1(O)CC[C@H]2[C@H](CC[C@@H]3[C@@H]2CC[C@]2(C)[C@@H](CNC(=O)c4cccnc4)CCC[C@@H]32)C1` [Example 35, N-(((1S,4aS,4bR,6aR,8R,10aS,10bR,12aS)-8-hydroxy-8,12a-dimethyloctadecahydrochrysen-1-yl)methyl)nicotinamide], the half-maximal inhibitory concentration (IC50) lay in the range of 0.1 to 1 µM.

As to `CCOC[C@@]1(O)CC[C@@H]2C3CC[C@]4(C)[C@@H]([C@@H](C)NC(=O)c5ccc(C#N)cc5F)CCC[C@H]4[C@@H]3CC[C@@H]2C1` (stereo partly shown) [Example 56], the IC50 was 0.1 to 1 µM.

On to `COC[C@@]1(O)CC[C@@H]2C3CC[C@]4(C)[C@@H]([C@H](C)NC(=O)c5ccc(F)cc5)CCC[C@H]4[C@@H]3CC[C@@H]2C1` (stereo partly drawn) [Example 45, 4-fluoro-N-((1S)-1-((1S,4aS,4bR,6aR,8R,10aS,12aS)-8-hydroxy-8-(methoxymethyl)-12a-methyloctadecahydrochrysen-1-yl)ethyl)benzamide], for which the IC50 lay in the range of 0.1 to 1 µM.

With `COC[C@@]1(O)CC[C@H]2[C@H](CC[C@@H]3[C@@H]2CC[C@]2(C)[C@@H]([C@H](C)Cn4cc(C#N)cn4)CCC[C@@H]32)C1` [Example 2, 1-((S)-2-((1R,4aS,4bR,6aR,8R,10aS,10bR,12aS)-8-hydroxy-8-(methoxymethyl)-12a-methyloctadecahydrochrysen-1-yl)propyl)-1H-pyrazole-4-carbonitrile], the IC50 is less than 0.1 µM.

Turning to `CC[C@]12CC[C@@](C)(O)C[C@H]1CC[C@H]1[C@@H]3CCC[C@H](CNC(=O)c4ccccc4)[C@@]3(C)CC[C@@H]12` [Example 36, N-(((1S,4aS,4bS,6aR,8R,10aS,10bS,12aS)-10a-ethyl-8-hydroxy-8,12a-dimethyloctadecahydrochrysen-1-yl)methyl)benzamide], the IC50 was 0.1 to 1 µM.

In the case of `COC[C@@]1(O)CC[C@H]2[C@H](CC[C@@H]3[C@@H]2CC[C@]2(C)[C@@H]([C@@H](C)Cn4cc(C#N)cn4)CCC[C@@H]32)C1` [Example 3, 1-((R)-2-((1R,4aS,4bR,6aR,8R,10aS,10bR,12aS)-8-hydroxy-8-(methoxymethyl)-12a-methyloctadecahydrochrysen-1-yl)propyl)-1H-pyrazole-4-carbonitrile], the IC50 was less than 0.1 µM.

Regarding `C[C@H](Cn1cc(C#N)cn1)[C@H]1CCC[C@H]2[C@@H]3CC[C@@H]4C[C@](C)(O)CC[C@@H]4[C@H]3CC[C@]12C` [Example 1, 1-((S)-2-((1R,4aS,4bR,6aR,8R,10aS,10bR,12aS)-8-hydroxy-8,12a-dimethyloctadecahydrochrysen-1-yl)propyl)-1H-pyrazole-4-carbonitrile], the IC50 was less than 0.1 µM.

As to `C[C@H](Cn1cc(C#N)cn1)[C@H]1CC[C@H]2[C@@H]3CC[C@@H]4C[C@](C)(O)CCC[C@@H]4[C@H]3CC[C@]12C` [Example 22, 1-((S)-2-((1R,3aS,3bR,5aR,7R,10aS,10bR,12aS)-7-hydroxy-7,12a-dimethyloctadecahydrocyclohepta[a]cyclopenta[f]naphthalen-1-yl)propyl)-1H-pyrazole-4-carbonitrile], the IC50 was less than 0.1 µM.

For `CN(C[C@H]1CCC[C@H]2[C@@H]3CC[C@@H]4C[C@](C)(O)CC[C@@H]4[C@H]3CC[C@]12C)S(=O)(=O)c1ccccc1` [Example 26, N-(((1S,4aS,4bR,6aR,8R,10aS,10bR,12aS)-8-hydroxy-8,12a-dimethyloctadecahydrochrysen-1-yl)methyl)-N-methylbenzenesulfonamide], the half-maximal inhibitory concentration (IC50) is less than 0.1 µM.

Take `COC[C@@]1(O)CC[C@@H]2C3CC[C@]4(C)[C@@H]([C@@H](C)NC(=O)c5ccc(C#N)cc5)CCC[C@H]4[C@@H]3CC[C@@H]2C1` (stereo partly drawn) [Example 46, 4-cyano-N-((1R)-1-((1S,4aS,4bR,6aR,8R,10aS,12aS)-8-hydroxy-8-(methoxymethyl)-12a-methyloctadecahydrochrysen-1-yl)ethyl)benzamide]: the IC50 lay in the range of 0.1 to 1 µM.

Consider `CC[C@]12CC[C@@](C)(O)C[C@H]1CC[C@H]1[C@@H]3CCC[C@H](CN(C)S(=O)(=O)c4ccccc4)[C@@]3(C)CC[C@@H]12` [Example 38, N-(((1S,4aS,4bS,6aR,8R,10aS,10bS,12aS)-10a-ethyl-8-hydroxy-8,12a-dimethyloctadecahydrochrysen-1-yl)methyl)-N-methylbenzenesulfonamide], for which the IC50 was less than 0.1 µM.

With `C[C@@H](Nc1cccc(C#N)c1)[C@H]1CCC[C@H]2[C@@H]3CC[C@@H]4C[C@](C)(O)CC[C@@H]4C3CC[C@]12C` (stereo partly drawn) [Example 49, 3-(((1R)-1-((1S,4aS,4bR,6aR,8R,10aS,12aS)-8-hydroxy-8,12a-dimethyloctadecahydrochrysen-1-yl)ethyl)amino)benzonitrile], the IC50 is less than 0.1 µM.

For the compound `C[C@@]1(O)CC[C@H]2[C@H](CC[C@@H]3[C@@H]2CC[C@]2(C)[C@@H](CNC(=O)c4ccc(C#N)cc4)CCC[C@@H]32)C1` [Example 34, 4-cyano-N-(((1S,4aS,4bR,6aR,8R,10aS,10bR,12aS)-8-hydroxy-8,12a-dimethyloctadecahydrochrysen-1-yl)methyl)benzamide], the IC50 was 0.1 to 1 µM.

For the compound `CC[C@]12CC[C@H]3[C@@H](CC[C@@H]4C[C@](C)(O)CC[C@@H]43)[C@@H]1CCC[C@@H]2[C@H](C)NC(=O)c1ccc(C#N)cc1` [Example 54, 4-cyano-N-((S)-1-((1S,4aS,4bR,6aR,8R,10aS,10bR,12aS)-12a-ethyl-8-hydroxy-8-methyloctadecahydrochrysen-1-yl)ethyl)benzamide], the IC50 was 0.1 to 1 µM.

Take `CCC[C@@]1(O)CC[C@H]2[C@@H](CC[C@@H]3[C@@H]2CC[C@]2(C)[C@@H]([C@H](C)Cn4nnnc4C)CCC[C@@H]32)C1` [Example 7, (2R,4aS,4bR,6aS,7R,10aS,10bR,12aS)-6a-methyl-7-((S)-1-(5-methyl-1H-tetrazol-1-yl)propan-2-yl)-2-propyloctadecahydrochrysen-2-ol]: the IC50 is not below 1 µM.

With `CC[C@]12CCC3[C@H]4CC[C@](O)(COC)C[C@H]4CC[C@H]3[C@@H]1CCC[C@@H]2CNC(=O)c1ccc(C#N)cc1` (stereo partly drawn) [Example 41, 4-cyano-N-(((1S,4aS,4bR,6aR,8R,10aS,12aS)-12a-ethyl-8-hydroxy-8-(methoxymethyl)octadecahydrochrysen-1-yl)methyl)benzamide], the IC50 is 0.1 to 1 µM.

For `Cn1ccc(C(=O)NC[C@H]2CCC[C@H]3[C@@H]4CC[C@@H]5C[C@](C)(O)CC[C@@H]5[C@H]4CC[C@]23C)n1` [Example 27, N-(((1S,4aS,4bR,6aR,8R,10aS,10bR,12aS)-8-hydroxy-8,12a-dimethyloctadecahydrochrysen-1-yl)methyl)-1-methyl-1H-pyrazole-3-carboxamide], the half-inhibitory concentration (IC50) fell in the range of 0.1 to 1 µM.

On to `CCOC[C@@]1(O)CC[C@@H]2C3CC[C@]4(C)[C@@H]([C@@H](C)NC(=O)c5ccc(F)cc5F)CCC[C@H]4[C@@H]3CC[C@@H]2C1` (stereo partly drawn) [Example 52, N-((1R)-1-((1S,4aS,4bR,6aR,8R,10aS,12aS)-8-(ethoxymethyl)-8-hydroxy-12a-methyloctadecahydrochrysen-1-yl)ethyl)-2,4-difluorobenzamide], for which the IC50 lay within 0.1 to 1 µM.
